Reference: article PMC11637483, “Dissecting caspase-2-mediated cell death: from intrinsic PIDDosome activation to chemical modulation” (Protein & Cell, 2024)

Tested on: HeLa-CASP2−/−CASP3−/−GSDMD−/− (TKO) cells
Assay: Cell death in control HeLa triple knockout cells without active caspase-2
Assay type: cell-based, human
Source text: Specific chemical compounds are powerful tools for dissecting target-related signaling mechanisms in biological contexts ([Beck et al., 2022]; [Zhang et al., 2012]). Prompted by this notion and possibly to identify a compound that could activate the PIDDosome, we designed a cell death-based high-throughput chemical screen in HeLa cells, in which a triple knockout of CASP2, CASP3, and GSDMD were constructed. CASP3 and GSDMD deficiency served as the background to minimize compound-induced nonspecific cytotoxicity and undesired pyroptosis. Using the triple knockout cells as the control, additional expression of exogenous caspase-2 allows the identification of compounds that can specifically activate the caspase-2-BID pathway and trigger apoptosis through caspase-7. […]
Figure 3. […] The ratios of the cell viability between the two groups are calculated with 3 as a cutoff for positive compound hit selection. […] Processing of caspase-2, -3, and -7 was analyzed by immunoblotting. […] ATP-based cell viability in panels (B and D) is expressed as mean ± s.d. from three technical replicates. […]
Drug-related Screening Library (25 × 384-well plate, more than 7,000 compounds) was used for the chemical screen in the TKO HeLa cells rescued with exogenous caspase-2 expression. […] After treatment for 12 h, the cell viability was measured by the ATP assay. […]

## Cc1ccc2nc(-n3nc(C)c(Cc4ccccc4)c3O)[nH]c2c1 [HUHS015]
TKO cells expressing protease-deficient caspase-2 C320A
  cell death: no cell death
Chemical screen, 12 h
  cell death selectivity, caspase-2-expressing vs control TKO cells: robust cell death selectively in caspase-2-expressing but not the control triple knockout cells
